Measurements taken from patent US20090208620A1, “Alimentary Compositions and Methods For Metabolic Modulation” (VDF FUTURECEUTICALS, INC., priority 2003, published 2009).
Values joined by “and” are separate entries in the source; they are usually repeats but may differ in a detail not shown here. Equal entries are not always repeated.

Tests used:
activated Akt = assay: Western immunoblot for activated (phospho-Ser473) Akt in muscle cells; assay type: cell-based, mouse; conditions: for FOLD AKT ACTIVATION (OVER CONTROL): cells treated 30 minutes at 37° C; for effect on Akt activity (in words): no concentration stated
Description: (§1) The levels of Glut-4, activated AMPK and activated Akt were measured in mouse muscle cells C2C12 (from ATTC) and in primary culture of human skeletal muscle cells (Clonetics, Inc.) using Western immunoblotting. C2C12 cells were plated at 1.5×1-exp5 cells per mL/well (12-well plate) in standard cell culture medium (DMEM supplemented with 10% fetal bovine serum (FBS), 25 mM glucose, 20 mM Hepes, 4 mM glutamine and 2 mM sodium pyruvate. 48 hrs after the plating, medium was changed to differentiation medium (DMEM supplemented with 5 mM of glucose and 0.5% of FBS) for next 3-4 days to stimulate the formation of myotubes. Three hours before the treatment with selected agents, cells were washed with PBS and transferred to PBS supplemented with 5 mM of glucose.
(§2) Human skeletal muscle cells (HSKM) were cultured in SKBM-2 mediums provided by Clonetics. 48 hrs after cell plating, medium was changed to SKBM medium to stimulate differentiation of the cells to myotubes. When differentiated, the myotubes were transferred to PBS supplemented with 5 mM glucose for three hrs before the treatment.
(§3) Analysis of C2C12 cells for the level of activated AMPK, Akt and the level of GLUT-4 was performed in the same experimental system. The cells were treated for 30 minutes at 37° C. […] Subsequently, 20 μg per sample of sample protein was used for Western analysis using NuPage 10% Bis/Tris gels (Invitrogen). After exposure of membranes to primary and secondary antibodies AMPK, AKT or Glut-4 was detected using ECL-Plus (Amersham) following producer's instruction. Chemilumiscent signals were detected by using ChemiDoc system from Biorad. Intensity of detected signals were analyzed and measured using Quantity One software (Biorad). Alternatively, the level of phosphorylated AMPK was detected using ECL kit from Amersham and short exposure to Kodak films.
(§4) Experimental setup: Cell Culture was followed by treatment with selected contemplated compounds, which was followed by cell lysis and western blot analysis for AMPK, Akt, GLUT4, total AMPK, and total Akt. Signals were acquired accordingly.

activated AMPK = assay: Western immunoblot for activated (phospho-Thr172) AMPK in muscle cells; assay type: cell-based, mouse; conditions: for FOLD AMPK ACTIVATION (OVER CONTROL): cells treated 30 minutes at 37° C; for effect on AMPK activity (in words): no concentration stated
Description: as §1, §2, §3, §4

muscle cells = assay: Total glucose uptake in vitro with fluorescent glucose analog; assay type: cell-based; conditions: for AVERAGE (N = 3) fluorescence of fluorescent glucose in the cells / FOLD CHANGE IN TOTAL GLUCOSE UPTAKE (OVER CONTROL): 30 minutes at 37 C
Description: Total glucose uptake was measured using fluorescent glucose analog from Molecular Probes. Briefly, muscle cells were treated with kinetin, N^2-Acetyl-Guanosine and N^2-Acetyl-Guanine for 30 minutes at 37 C first and subsequently, these cells were exposed to 500 μM of fluorescent glucose analog for 5 minutes at room temperature. Next, cells were washed twice with cold Krebs-Hepes buffered solution and fixed in 70% ethanol in water. Fluorescence of fluorescent glucose in the cells was measured using fluorescent plate reader at 480/530 nm (excitation/emission). […] Table 4 refers to multiple independent experiments where multiple identical concentrations for the same reagents are indicated.

GLUT-4 = assay: Western immunoblot for GLUT-4 protein level in C2C12 cells; assay type: cell-based, mouse
Description: as §1
Analysis of C2C12 cells for the level of activated AMPK, Akt and the level of GLUT-4 was performed in the same experimental system. The cells were treated for 30 minutes at 37° C. After the treatment, the cells were washed with ice-cold PBS and lysed with 80 μl of lysis buffer/well (M-PER buffer from Pierce supplemented with protease and phosphatase inhibitor mix (Calbiochem) for 10 minutes on ice. Next, the plates were transferred to −20° C. to improve the lysis of the cells. Next cells were sonicated for 5 minutes and lysate was transferred to Eppendorf tubes and centrifuged at 14,000 rpm for 10 minutes. Supernatants were collected in fresh Eppendorf tubes and kept on ice to measure the amount of total proteins. 3 μl of each lysate was used to measure the protein concentration using standard Bradford method (Biorad). Subsequently, 20 μg per sample of sample protein was used for Western analysis using NuPage 10% Bis/Tris gels (Invitrogen). After exposure of membranes to primary and secondary antibodies AMPK, AKT or Glut-4 was detected using ECL-Plus (Amersham) following producer's instruction. Chemilumiscent signals were detected by using ChemiDoc system from Biorad. Intensity of detected signals were analyzed and measured using Quantity One software (Biorad). Alternatively, the level of phosphorylated AMPK was detected using ECL kit from Amersham and short exposure to Kodak films.
Experimental setup: Cell Culture was followed by treatment with selected contemplated compounds, which was followed by cell lysis and western blot analysis for AMPK, Akt, GLUT4, total AMPK, and total Akt. Signals were acquired accordingly. Primary antibodies used in these studies are the following: Anti-phospho-AMPK (Thr172), mouse, rabbit IgG, from Cell Signaling, #2531; Anti-phospho-Akt (Ser473), mouse, rabbit IgG, Cell Signaling, #9271; Anti-Glut-4, mouse, rabbit IgG, Calbiochem, #400064; Anti-AMPK (total), mouse, rabbit IgG, Cell Signaling, #2532; Anti-Akt (total), mouse, rabbit IgG, Cell Signaling, #9272.
The effects of kinetin, N^2-Acetyl-Guanosine and N^2-Acetyl-Guanine on GLUT-4 protein level in C2C12 cells were investigated following the same experimental design as described for AMPK and AKT. Anti-Glut-4 antibody used in this study was from Calbiochem. […] Table 3 refers to multiple independent experiments where multiple identical concentrations for the same reagents are indicated.

[1] = concentration 0.15 (unit not given)
[2] = concentration 0.3 (unit not given)
[3] = concentration 0.75 (unit not given)
[4] = concentration 1.5 (unit not given)
[5] = concentration 3.75 (unit not given)
[6] = concentration 7.5 (unit not given)

C/C(=C\CNc1ncnc2[nH]cnc12)CO [Zeatin]
FOLD AKT ACTIVATION (OVER CONTROL) (activated Akt; 1.0 microM): 0.95 fold
FOLD AKT ACTIVATION (OVER CONTROL) (activated Akt; 10.0 microM): 1.36 fold
effect on Akt activity (in words) (activated Akt): not Akt
FOLD AMPK ACTIVATION (OVER CONTROL) (activated AMPK; 1.0 microM): 2.33 fold and 2.15 fold
FOLD AMPK ACTIVATION (OVER CONTROL) (activated AMPK; 10.0 microM): 2.04 fold
effect on AMPK activity (in words) (activated AMPK): potent stimulator of AMPK

CC(=O)Nc1nc2c(ncn2[C@@H]2O[C@H](CO)[C@@H](O)[C@H]2O)c(=O)[nH]1 [N^2-Acetyl-Guanosine]
effect on glucose uptake in muscle cells in vitro (in words) (muscle cells): potently enhance glucose uptake in muscle cells in vitro
AVERAGE (N = 3) fluorescence of fluorescent glucose in the cells (muscle cells; [1]): 90.5 +/− 1.7
FOLD CHANGE IN TOTAL GLUCOSE UPTAKE (OVER CONTROL) (muscle cells; [1]): 1.94 fold
AVERAGE (N = 3) fluorescence of fluorescent glucose in the cells (muscle cells; [2]): 44.1 +/− 0.7
FOLD CHANGE IN TOTAL GLUCOSE UPTAKE (OVER CONTROL) (muscle cells; [2]): 2.17 fold
AVERAGE (N = 3) fluorescence of fluorescent glucose in the cells (muscle cells; [3]): 109.5 +/− 2.6
FOLD CHANGE IN TOTAL GLUCOSE UPTAKE (OVER CONTROL) (muscle cells; [3]): 2.35 fold
AVERAGE (N = 3) fluorescence of fluorescent glucose in the cells (muscle cells; [4]): 54.3 +/− 0.9
FOLD CHANGE IN TOTAL GLUCOSE UPTAKE (OVER CONTROL) (muscle cells; [4]): 2.67 fold
AVERAGE (N = 3) fluorescence of fluorescent glucose in the cells (muscle cells; [5]): 148.7 +/− 8.5
FOLD CHANGE IN TOTAL GLUCOSE UPTAKE (OVER CONTROL) (muscle cells; [5]): 3.18 fold
AVERAGE (N = 3) fluorescence of fluorescent glucose in the cells (muscle cells; [6]): 61.7 +/− 1.3
FOLD CHANGE IN TOTAL GLUCOSE UPTAKE (OVER CONTROL) (muscle cells; [6]): 3.03 fold
effect on GLUT-4 protein level (in words) (GLUT-4): potently increase GLUT-4 protein level
FOLD CHANGE IN GLUT-4 LEVEL (OVER CONTROL) (GLUT-4; 0.3 microM): 1.21 fold
FOLD CHANGE IN GLUT-4 LEVEL (OVER CONTROL) (GLUT-4; 1.5 microM): 1.74 fold
FOLD CHANGE IN GLUT-4 LEVEL (OVER CONTROL) (GLUT-4; 7.5 microM): 3.14 fold
FOLD CHANGE IN GLUT-4 LEVEL (OVER CONTROL) (GLUT-4; 37.5 microM): 3.03 fold
FOLD AKT ACTIVATION (OVER CONTROL) (activated Akt; 0.1 microM): 2.57 fold
FOLD AKT ACTIVATION (OVER CONTROL) (activated Akt; 0.3 microM): 1.92 fold and 2.57 fold
FOLD AKT ACTIVATION (OVER CONTROL) (activated Akt; 0.8 microM): 1.75 fold and 2.95 fold
FOLD AKT ACTIVATION (OVER CONTROL) (activated Akt; 1.5 microM): 1.55 fold
FOLD AKT ACTIVATION (OVER CONTROL) (activated Akt; 2.0 microM): 2.17 fold
FOLD AKT ACTIVATION (OVER CONTROL) (activated Akt; 5.0 microM): 1.23 fold
FOLD AKT ACTIVATION (OVER CONTROL) (activated Akt; 7.5 microM): 1.68 fold
effect on Akt activity (in words) (activated Akt): potent activators of AMPK as well as Akt
FOLD AMPK ACTIVATION (OVER CONTROL) (activated AMPK; 0.3 microM): 3.75 fold
FOLD AMPK ACTIVATION (OVER CONTROL) (activated AMPK; 0.8 microM): 2.20 fold
FOLD AMPK ACTIVATION (OVER CONTROL) (activated AMPK; 1.5 microM): 4.28 fold
FOLD AMPK ACTIVATION (OVER CONTROL) (activated AMPK; 2.0 microM): 2.20 fold
FOLD AMPK ACTIVATION (OVER CONTROL) (activated AMPK; 7.5 microM): 1.71 fold
FOLD AMPK ACTIVATION (OVER CONTROL) (activated AMPK; 37.5 microM): 2.28 fold
effect on AMPK activity (in words) (activated AMPK): potent activators of AMPK

CC(C)=CCNc1ncnc2nc[nH]c12 [Gamma, Gamma-Dimethylally-6-Aminopurine]
FOLD AKT ACTIVATION (OVER CONTROL) (activated Akt; 0.8 microM): 1.90 fold and 3.56 fold
FOLD AKT ACTIVATION (OVER CONTROL) (activated Akt; 2.0 microM): 1.32 fold
FOLD AMPK ACTIVATION (OVER CONTROL) (activated AMPK; 0.5 microM): 2.82 fold
FOLD AMPK ACTIVATION (OVER CONTROL) (activated AMPK; 5.0 microM): 2.45 fold
FOLD AMPK ACTIVATION (OVER CONTROL) (activated AMPK; 50.0 microM): 2.11 fold

Nc1nc2c(ncn2[C@@H]2O[C@H](CO)[C@@H](O)[C@H]2O)c(=O)[nH]1 [Guanosine]
effect on Akt activity (in words) (activated Akt): potent activators of AMPK as well as Akt
FOLD AMPK ACTIVATION (OVER CONTROL) (activated AMPK; 5.0 microM): 3.70 fold
effect on AMPK activity (in words) (activated AMPK): potent activators of AMPK

Nc1ncnc2c1ncn2[C@@H]1O[C@H](CO)[C@@H](O)[C@H]1O [Adenosine]
FOLD AMPK ACTIVATION (OVER CONTROL) (activated AMPK; 2.5 microM): 1.87 fold
FOLD AMPK ACTIVATION (OVER CONTROL) (activated AMPK; 5.0 microM): 1.64 fold
FOLD AMPK ACTIVATION (OVER CONTROL) (activated AMPK; 12.5 microM): 1.83 fold

CC(=O)Nc1ncnc2c1ncn2[C@@H]1O[C@H](CO)[C@@H](O)[C@H]1O [N^6-Acetyl-Adenosine]
FOLD AMPK ACTIVATION (OVER CONTROL) (activated AMPK; 2.5 microM): 1.08 fold
FOLD AMPK ACTIVATION (OVER CONTROL) (activated AMPK; 5.0 microM): 2.41 fold
FOLD AMPK ACTIVATION (OVER CONTROL) (activated AMPK; 12.5 microM): 2.18 fold

CN(C)C(=N)N=C(N)N [Metformin, reference compound]
FOLD CHANGE IN GLUT-4 LEVEL (OVER CONTROL) (GLUT-4; 2000 microM): 1.50 fold
FOLD AKT ACTIVATION (OVER CONTROL) (activated Akt; 2.0 milliM): 2.70 fold
FOLD AMPK ACTIVATION (OVER CONTROL) (activated AMPK; 2.0 milliM): 1.42 fold
